The record followed here is US7601716B2, “Pyridopyrazines and derivatives thereof as ALK and c-Met inhibitors” (Cephalon, Inc., priority 2006, dated 2009).

What is called inhibition is the drop in the measured response relative to a control, in per cent. For orientation: IC50 means the concentration that inhibits the measured activity by half. By melting point is commonly meant the temperature, or range, at which the solid turns liquid.

For series [1], the target named is T1, c-Met (phospho-c-Met) in HT29 cells (Homo sapiens, UniProt P08581).
T1 construct: endogenous in cells; host or cells: HT29, A549 (HGF-stimulated), GTL-16
Briefly: c-Met Cellular Activity/Autophosphorylation Assay, HT29 cells. It is filed as cell-based. As to conditions: for inhibition at 1 µM: HT-29, 1 μM compound, read-out: c-Met autophosphorylation inhibition score, HT29 Cells (1 μM); for inhibition at 3 µM: HT-29, 3 μM compound, read-out: c-Met autophosphorylation inhibition score, HT29 Cells (3 μM). The essentials:
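HT29 and GTL-16 cells serum-starved 1 h in 0.05% BSA with compound (1-10 μM); A549 serum-starved overnight, compound-treated 1 h, then HGF 50 ng/mL for 15 min. Lysates Western blotted; phospho-c-Met and total c-Met quantified by infrared fluorescence imaging.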

The target of series [2] is T2, c-Met (phospho-c-Met) in GTL-16 cells (Homo sapiens, UniProt P08581).
T2 construct: endogenous in cells; host or cells: HT29, A549 (HGF-stimulated), GTL-16
Briefly: c-Met Cellular Activity/Autophosphorylation Assay, GTL-16 cells. It is filed as cell-based. As to conditions: for inhibition at 1 µM: 1 μM compound, read-out: c-Met autophosphorylation inhibition score, GTL-16 Cells (1 μM); for inhibition at 3 µM: 3 μM compound, read-out: c-Met autophosphorylation inhibition score, GTL-16 Cells (3 μM). The protocol: HT29 and GTL-16 cells were serum starved for one hour in media containing 0.05% BSA and varying concentrations of Example compounds (1-10 μM). A549 cells were serum starved overnight in media containing 0.05% BSA then treated for one hour with Example compounds followed by a 15 minute stimulation with 50 ng/mL HGF (Peprotech, Rocky Hill, N.J.), respectively. Samples were resolved by electrophoresis on a 3-8% Tris-Acetate gel (40 ma/gel) and then transferred to a nitrocellulose membrane. Membranes were blocked for one hour at room temperature in Odyssey Blocking Buffer (Licor #927-40000) diluted 1:1 with 1×TBS. Membranes were then co-incubated overnight at 4° C. with primary antibodies [total Met (Cell Signaling, #3127) and Phospho-Met (Biosource, #44-888G) 1:1000 each in Odyssey Blocking Buffer diluted 1:1 with 1×TBS-T 0.05%]. The next day, membranes were washed and co-incubated with secondary antibodies [Goat anti mouse IRDye800 (Rockland, #610-132-121) and Goat anti rabbit Alexa fluor 700 (Molecular Probes, #A21038) 1:10,000] in Odyssey Blocking Buffer diluted 1:1 with 1×TBS-T 0.05% for one hour at room temperature protected from light. Blots were then washed and read on the Odyssey Infrared Imager. Total c-Met signal was visualized at 800 nm detection and phospho-c-Met signal was visualized at 700 nm detection.

For series [3], the target named is T3, c-Met (cytoplasmic domain) (Homo sapiens, UniProt P08581).
T3 construct: Reactions were initiated with 30 ng/mL c-Met (cytoplasmic domain, Invitrogen Corporation #PV3143); purchased Invitrogen Corporation PV3143
Kind of series: c-Met Kinase Assay (ELISA/TRF, PLC-γ substrate). It is filed as biochemical. As to conditions: 3 μM ATP (Km level); read-out: c-Met Kinase Inhibition (IC50). The essentials: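 Readout is TRF of europium anti-phosphotyrosine (PT66) bound to GST–PLC-γ substrate coated at 10 μg/mL, after a 15 min, 37 °C reaction started with 30 ng/mL c-Met cytoplasmic domain. Percent inhibition plotted against log compound concentration and fitted (variable slope) for IC50.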
For orientation: In an ELISA, binding on a coated surface is turned into a signal by an enzyme label.

Series [4] has as its target baculovirus-expressed ALK (Homo sapiens, UniProt Q9UM73). Kind of series: ALK Kinase Assay (ELISA/TRF, PLC-γ substrate). Note: 1 µM ATP (Km level). As to conditions: read-out: ALK Kinase Inhibition (IC50). It is filed as biochemical. The essentials: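 ALK at 30 ng/ml phosphorylated plate-bound PLC-γ–GST fusion (coated from 10 μg/mL) during 15 minutes at 37° C. Product was detected with Eu-N1 PT66 anti-phosphotyrosine antibody and measured by time-resolved fluorescence.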

In a further series the target is T4, NPM-ALK (Homo sapiens, UniProt Q9UM73).
T4 construct: a fusion protein consisting of nucleophosmin (NMP) and the intracellular domain of ALK; the other entry of the earlier key: NPM1 (P06748, Nucleophosmin)
Briefly: ALK Cellular Assay (phospho-NPM-ALK immunoblot / ALK tyrosine phosphorylation ELISA). It is filed as cell-based. The essentials:
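Compound-treated cells lysed; phospho-NPM-ALK (Y664) and total ALK detected by immunoblot with ECL and quantified by densitometry. Alternatively, an ELISA captured ALK from lysates overnight at 4 °C, detected anti-phospho-ALK (Y664) with alkaline phosphatase and a 4-MeUP fluorogenic read-out.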
(In general: A western blot detects proteins with antibodies after separation by electrophoresis.)

Structures are written as SMILES.

T2 sequence (P08581 25-1390): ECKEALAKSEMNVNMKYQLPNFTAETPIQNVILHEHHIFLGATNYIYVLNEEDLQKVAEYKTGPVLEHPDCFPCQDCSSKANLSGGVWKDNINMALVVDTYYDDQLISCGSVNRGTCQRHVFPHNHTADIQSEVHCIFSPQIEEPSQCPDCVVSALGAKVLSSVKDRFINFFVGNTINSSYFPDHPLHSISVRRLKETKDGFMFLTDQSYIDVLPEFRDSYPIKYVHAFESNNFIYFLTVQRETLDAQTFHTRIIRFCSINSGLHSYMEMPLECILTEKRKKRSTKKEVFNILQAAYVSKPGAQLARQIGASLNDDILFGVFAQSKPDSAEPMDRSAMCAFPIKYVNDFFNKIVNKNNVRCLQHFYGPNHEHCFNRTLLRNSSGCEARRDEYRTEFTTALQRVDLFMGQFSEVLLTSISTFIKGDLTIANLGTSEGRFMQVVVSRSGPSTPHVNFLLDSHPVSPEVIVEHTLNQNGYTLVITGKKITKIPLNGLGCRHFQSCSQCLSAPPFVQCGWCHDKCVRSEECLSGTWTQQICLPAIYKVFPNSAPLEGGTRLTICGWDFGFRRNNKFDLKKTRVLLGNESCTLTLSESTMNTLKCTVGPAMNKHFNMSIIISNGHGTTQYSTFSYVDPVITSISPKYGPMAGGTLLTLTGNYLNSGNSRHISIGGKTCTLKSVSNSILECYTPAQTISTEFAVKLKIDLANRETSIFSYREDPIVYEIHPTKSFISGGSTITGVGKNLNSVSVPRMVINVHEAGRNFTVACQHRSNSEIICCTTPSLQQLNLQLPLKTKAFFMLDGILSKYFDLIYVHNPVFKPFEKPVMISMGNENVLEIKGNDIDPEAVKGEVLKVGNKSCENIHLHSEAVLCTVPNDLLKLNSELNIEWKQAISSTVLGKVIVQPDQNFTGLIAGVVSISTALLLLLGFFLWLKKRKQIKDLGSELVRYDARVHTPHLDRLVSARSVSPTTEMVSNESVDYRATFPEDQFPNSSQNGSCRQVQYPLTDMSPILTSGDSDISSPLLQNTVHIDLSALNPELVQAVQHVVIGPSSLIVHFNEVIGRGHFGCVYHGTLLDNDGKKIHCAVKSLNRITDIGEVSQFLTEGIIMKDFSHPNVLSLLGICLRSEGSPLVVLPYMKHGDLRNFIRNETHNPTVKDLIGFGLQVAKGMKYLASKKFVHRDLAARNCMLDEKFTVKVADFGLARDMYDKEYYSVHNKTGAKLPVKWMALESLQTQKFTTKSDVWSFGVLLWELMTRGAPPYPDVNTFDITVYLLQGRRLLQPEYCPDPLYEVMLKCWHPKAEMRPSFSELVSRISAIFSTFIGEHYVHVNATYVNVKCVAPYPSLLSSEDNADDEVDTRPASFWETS
T1 sequence (P08581 25-1390): as above
T3 sequence (P08581 956-1390 limits assumed): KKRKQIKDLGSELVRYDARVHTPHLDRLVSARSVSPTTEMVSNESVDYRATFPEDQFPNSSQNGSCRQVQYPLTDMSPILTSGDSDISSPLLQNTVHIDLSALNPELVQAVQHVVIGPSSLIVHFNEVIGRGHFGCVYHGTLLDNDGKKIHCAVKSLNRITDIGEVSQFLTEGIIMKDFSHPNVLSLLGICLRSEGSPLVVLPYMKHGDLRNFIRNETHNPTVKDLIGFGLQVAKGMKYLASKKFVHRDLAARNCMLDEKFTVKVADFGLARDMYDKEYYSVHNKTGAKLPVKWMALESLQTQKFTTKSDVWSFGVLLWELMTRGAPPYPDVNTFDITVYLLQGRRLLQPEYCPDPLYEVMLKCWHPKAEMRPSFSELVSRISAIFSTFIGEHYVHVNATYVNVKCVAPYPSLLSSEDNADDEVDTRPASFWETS
Sequence of baculovirus-expressed ALK (Q9UM73 19-1620): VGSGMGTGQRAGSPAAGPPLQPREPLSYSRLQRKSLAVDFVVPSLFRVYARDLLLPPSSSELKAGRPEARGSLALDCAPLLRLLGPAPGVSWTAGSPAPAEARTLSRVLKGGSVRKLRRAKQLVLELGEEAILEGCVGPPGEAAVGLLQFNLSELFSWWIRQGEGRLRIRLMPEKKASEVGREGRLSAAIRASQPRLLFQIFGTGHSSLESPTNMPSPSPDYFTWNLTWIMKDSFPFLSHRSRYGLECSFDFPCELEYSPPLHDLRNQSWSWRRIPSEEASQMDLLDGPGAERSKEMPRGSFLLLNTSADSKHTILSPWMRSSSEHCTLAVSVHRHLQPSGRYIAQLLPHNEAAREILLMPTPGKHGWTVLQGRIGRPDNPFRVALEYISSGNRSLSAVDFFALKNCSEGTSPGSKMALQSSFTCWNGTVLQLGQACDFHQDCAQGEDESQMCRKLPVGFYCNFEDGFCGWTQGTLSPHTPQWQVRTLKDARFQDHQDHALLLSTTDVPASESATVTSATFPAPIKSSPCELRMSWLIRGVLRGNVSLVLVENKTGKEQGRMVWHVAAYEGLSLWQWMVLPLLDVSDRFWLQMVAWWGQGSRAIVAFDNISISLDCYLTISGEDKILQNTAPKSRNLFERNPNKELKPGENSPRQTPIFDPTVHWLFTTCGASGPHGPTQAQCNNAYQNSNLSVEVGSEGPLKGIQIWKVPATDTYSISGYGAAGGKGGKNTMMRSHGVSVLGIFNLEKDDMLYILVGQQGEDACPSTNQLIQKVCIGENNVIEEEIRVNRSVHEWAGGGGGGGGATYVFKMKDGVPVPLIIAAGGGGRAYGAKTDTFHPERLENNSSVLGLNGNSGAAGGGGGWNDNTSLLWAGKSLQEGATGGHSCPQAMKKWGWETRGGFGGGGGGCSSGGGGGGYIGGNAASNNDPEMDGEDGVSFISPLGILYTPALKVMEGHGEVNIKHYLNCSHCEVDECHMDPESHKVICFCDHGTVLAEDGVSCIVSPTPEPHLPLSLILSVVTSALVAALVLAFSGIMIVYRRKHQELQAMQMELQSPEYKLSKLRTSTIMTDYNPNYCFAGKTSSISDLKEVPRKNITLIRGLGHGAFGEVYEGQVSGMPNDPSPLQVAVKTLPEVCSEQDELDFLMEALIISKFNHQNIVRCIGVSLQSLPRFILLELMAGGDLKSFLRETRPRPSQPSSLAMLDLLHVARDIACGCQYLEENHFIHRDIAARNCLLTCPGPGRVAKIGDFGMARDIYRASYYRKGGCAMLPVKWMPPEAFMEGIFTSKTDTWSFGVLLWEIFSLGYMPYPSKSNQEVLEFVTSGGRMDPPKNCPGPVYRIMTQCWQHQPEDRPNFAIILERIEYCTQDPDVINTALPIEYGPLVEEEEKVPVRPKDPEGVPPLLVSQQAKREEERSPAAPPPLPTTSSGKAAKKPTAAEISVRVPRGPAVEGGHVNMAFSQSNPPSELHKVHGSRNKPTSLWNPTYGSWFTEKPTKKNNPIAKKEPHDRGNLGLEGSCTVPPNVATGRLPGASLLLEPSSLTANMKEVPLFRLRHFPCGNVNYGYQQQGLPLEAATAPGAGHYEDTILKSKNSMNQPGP

Regarding `CN1CCN(c2ccc(-c3cnc4c(c3)N(Cc3c(F)ccc(F)c3Cl)CCN4)cn2)CC1` [Example 185, 1-(2-Chloro-3,6-difluorobenzyl)-7-[6-(4-methylpiperazin-1-yl)pyridin-3-yl]-1,2,3,4-tetrahydropyrido[2,3-b]pyrazine], the values for the inhibition at 1 µM in series [1] and in series [2] were 51 to 75% and 0 to 25%, respectively. Further, the inhibition at 3 µM was in the range of 76 to 100% in series [1] and 0 to 25% in series [2].
The molecule `Fc1ccc(F)c(CN2CCNc3ncc(-c4ccnc(N5CCOCC5)c4)cc32)c1Cl` [Example 186, 1-(2-Chloro-3,6-difluorobenzyl)-7-(2-morpholin-4-yl-pyridin-4-yl)-1,2,3,4-tetrahydropyrido[2,3-b]pyrazine] came in with a melting point of 157 °C. Moreover, in series [3], the IC50 is 1000 to 10000 nM. The IC50 in series [4] is less than 100 nM. Also, in series [1], the inhibition at 1 µM lay within 26 to 50% and the inhibition at 3 µM lay within 26 to 50%. In addition, in series [2], the inhibition at 1 µM was 0 to 25% and the inhibition at 3 µM lay in the range of 0 to 25%. Further, the IC50 against NPM-ALK was not above 250 nM.
